Data reported in article PMC7764606 (Cancers, 2020).
Read-outs that look alike come from different tables or passages of the source.

Experiments:
recombinant AKR1C3 = target: T1, recombinant AKR1C3 (Homo sapiens, UniProt P42330); assay: Reduction of Dau by recombinant AKR1C3 (UHPLC detection of Dau-ol); format: biochemical; conditions: for reduction of AKR1C3 activity (Dau reduction): Dau 500 µM, relative to DMSO; for Ki: read-out: Ki^app (Morrison equation for tight-binding inhibitors)
T1 construct: made in house; host or cells: Escherichia coli
T1 sequence (P42330 1-323): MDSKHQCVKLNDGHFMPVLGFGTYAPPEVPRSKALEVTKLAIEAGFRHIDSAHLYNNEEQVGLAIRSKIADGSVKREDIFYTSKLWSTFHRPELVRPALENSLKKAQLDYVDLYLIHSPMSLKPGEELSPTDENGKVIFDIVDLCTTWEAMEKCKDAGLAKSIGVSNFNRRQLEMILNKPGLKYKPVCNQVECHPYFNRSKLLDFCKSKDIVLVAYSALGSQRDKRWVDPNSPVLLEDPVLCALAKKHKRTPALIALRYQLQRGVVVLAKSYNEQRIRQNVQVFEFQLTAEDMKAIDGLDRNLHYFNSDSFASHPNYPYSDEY
Description: (§1) Human recombinant CREs (CBR1, AKR1A1, 1B1, 1B10, 7A2, and 1C3) were produced by an Escherichia coli expression system as per methods described previously. For the inhibitory assay, each recombinant enzyme, CBR1 (1 µg), AKR1A1 (1 µg), AKR1B1 (5 µg), AKR1B10 (5 µg), AKR7A2 (3 µg), or AKR1C3 (1.5 µg) was incubated with BTK inhibitors at different concentrations (10 and 50 µM) and the substrate Dau (500 µM). For analysis using the Lineweaver-Burk plot, 1.5 µg of recombinant AKR1C3 was incubated with DMSO or BTK inhibitors (1, 5, and 10 µM) and Dau (200, 400, 600, 800, 1000, and 2000 µM). […] The incubations and further metabolite detection were further performed by using ultra-high-performance liquid chromatography (UHPLC) as per methods described previously.

A549 cells = assay: MTT cell viability, A549 cells (incl. Chou-Talalay analysis); format: cell-based, human
Description: (§2) Twenty-four hours prior to the experiment, transfected HCT116 cells (8 × 10^3 cells/well) or A549 cells (5 × 10^3 cells/well) were seeded in 96-well plates. The cell culture medium was replaced with fresh medium containing increasing amounts of Dau (final concentrations: 0.01, 0.05, 0.1, 0.25, 0.5, 0.75, 1, and 10 µM) with or without BTK inhibitors (final concentrations: 1, 5, and 10 µM). After 72 h of incubation under standard conditions (37 °C, 5% CO2), cell viability was assessed by MTT (Sigma-Aldrich, Prague, Czech Republic) assay. For this, 50 µL of the MTT solution (3 mg/mL) was added to each well and incubated for 30 min. The supernatant was collected, and the cell monolayers were dissolved in 100 µL of DMSO. The absorbance was measured at 570 and 690 nm by a microplate reader Infinite M200 (Tecan, Salzburg, Austria), and the background values at 690 nm were subtracted from the absorbance obtained at 570 nm. The half-maximal inhibitory concentrations (IC50) were calculated using GraphPad Prism 8.1.2. The drug combination pharmacodynamics were determined by the Chou-Talalay method using the CompuSyn ver. 3.0.1 software (ComboSyn Inc., Paramus, NJ, USA).

[1] = single oral dose of 140 mg; cited from earlier work
recombinant AKR1B10 = tested on: T2, recombinant AKR1B10; assay: Reduction of Dau by recombinant AKR1B10 (UHPLC detection of Dau-ol); format: biochemical, Human; conditions: Dau 500 µM, relative to DMSO
T2 construct: made in house; host or cells: Escherichia coli
Description: as §1

[2] = tested on: AKR1C3 expression in A549 cells; assay: AKR1C3 protein levels in A549 cells by western blotting; format: cell-based, human; conditions: 1, 5 and 10 µM, 72 h, western blot relative to β-actin
Description: A549 cells were incubated with DMSO or BTK inhibitors (1, 5, and 10 µM) for 72 h, and then total protein was extracted for analysis of AKR1C3 expression by western blotting (WB) as per methods described previously. A representative WB is shown for IBR (A) and ACA (B) incubations, and bars represent AKR1C3 protein levels as determined by densitometry relative to β-actin (n = 3, mean ± SD). Uncropped images from WB are available in Figure S1 in the Supplementary Materials. On the other hand, HCT116-EV and HCT116-C3 cells were treated with increasing concentrations of IBR (C) and ACA (D) for 72 h, and their viability was assessed by MTT assay. Graphs represent a comparison of the dose-response curves for percentages of cell viability in each cell line (n = 6, mean ± SD).

[3] = tested on: T3, AKR1C3 in HCT116-C3 cells; assay: Dau metabolism to Dau-ol in HCT116 cells transiently overexpressing AKR1C3; format: cell-based, human; conditions: 5 h
T3 construct: expressed in transfected cells; host or cells: HCT116
Description: (§3) HCT116 cells were seeded (1.25 × 10^5 cells/well) in 24-well plates and cultured for 24 h. For the transient expression of the recombinant human AKR1C3, the cells were transfected with a pCI_AKR1C3 or empty pCI plasmid as control (previously described in a study by Hofman et al.) according to the manufacturer’s instructions (jetPRIME® Transfection Reagent; Polyplus Transfection®, Illkirch, France). For each 24-well plate, a mixture of 0.75 µL of the jetPRIME® Transfection Reagent and 0.25 µg of plasmid was incubated for 10 min at room temperature. Then, polyplexes were added to the HCT116 cells with 0.5 mL of fresh DMEM supplemented with 10% FBS and incubated for 24 h (37 °C, 5% CO2). The expression of recombinant AKR1C3 was verified by western blotting as per methods described previously.
After transfection of HCT116 cells or seeding of A549 cells (25 × 10^3 cells/well) in 24-well plates for 24 h, the medium was harvested and replaced with DMEM supplemented with 10% FBS containing 1 µM daunorubicin, with or without increasing concentrations (1, 5, and 10 μM) of BTK inhibitors. Cells were incubated (37 °C, 5% CO2) for 2.5 and 5 h (transfected HCT116) or only 5 h (A549). Then, the medium was collected and the cells were lysed in lysis buffer (25 mM Tris, 150 mM NaCl, and 1% Triton X-100, pH 7.8) for 15 min at room temperature. The collected medium was combined with cell lysate for further extraction and analysis of metabolites, as per methods described previously.

HCT116-EV cells = assay: MTT cell viability, HCT116-EV cells (incl. Chou-Talalay analysis); format: cell-based, human
Description: as §3, §2

[4] = BTK-inhibitor 5 µM + Dau 0.25 µM
[5] = BTK-inhibitor 5 µM + Dau 0.50 µM

COc1cccc2c1C(=O)c1c(O)c3c(c(O)c1C2=O)C[C@@](O)(C(C)=O)C[C@@H]3O[C@H]1C[C@H](N)[C@H](O)[C@H](C)O1 [Dau, daunorubicin]
Km (recombinant AKR1C3; substrate Dau, recombinant AKR1C3, read-out: Km used in the Morrison equation): 387 ± 36 µM

C=CC(=O)N1CCC[C@@H](n2nc(-c3ccc(Oc4ccccc4)cc3)c3c(N)ncnc32)C1 [Ibrutinib, ibrutinib]
Fraction affected (Fa %) (A549 cells; BTK-inhibitor 1 µM + Dau 0.01 µM): 21.92 ± 2.37% | Fraction affected (Fa %) (A549 cells; BTK-inhibitor 1 µM + Dau 0.25 µM): 43.16 ± 2.59% | Fraction affected (Fa %) (A549 cells; BTK-inhibitor 1 µM + Dau 0.50 µM): 71.16 ± 6.46% | Fraction affected (Fa %) (A549 cells; BTK-inhibitor 1 µM + Dau 0.75 µM): 86.63 ± 0.72% | Fraction affected (Fa %) (A549 cells; BTK-inhibitor 1 µM + Dau 1.00 µM): 91.12 ± 0.72% | Fraction affected (Fa %) (A549 cells; BTK-inhibitor 5 µM + Dau 0.01 µM): 33.76 ± 1.79% | Fraction affected (Fa %) (A549 cells; [4]): 54.13 ± 5.98% | Fraction affected (Fa %) (A549 cells; [5]): 85.67 ± 2.02% | Fraction affected (Fa %) (A549 cells; BTK-inhibitor 5 µM + Dau 0.75 µM): 91.76 ± 0.78% | Fraction affected (Fa %) (A549 cells; BTK-inhibitor 5 µM + Dau 1.00 µM): 94.00 ± 0.28% | mean Cmax [1]: 37.1 ng/mL | inhibition of AKR1B10 activity (Dau reduction) (recombinant AKR1B10; 10 µM BTK inhibitor): 48.18% ± 2.10% | inhibition of AKR1B10 activity (Dau reduction) (recombinant AKR1B10; 50 µM BTK inhibitor): 74.97% ± 0.87% | reduction of AKR1C3 activity (Dau reduction) (recombinant AKR1C3; 10 µM BTK inhibitor): 92.17% ± 3.43% | reduction of AKR1C3 activity (Dau reduction) (recombinant AKR1C3; 50 µM BTK inhibitor): 96.41% ± 1.48% | Ki (recombinant AKR1C3; AKR1C3 0.005 mg/mL (0.135 μM)): 0.312 µM | Ki (recombinant AKR1C3; AKR1C3 0.015 mg/mL (0.405 μM)): 0.332 µM | Ki (recombinant AKR1C3; AKR1C3 0.030 mg/mL (0.811 μM)): 0.354 µM | mode of inhibition (Lineweaver-Burk plot) (recombinant AKR1C3; recombinant AKR1C3 with increasing Dau): non-competitive/mixed | effect on expression (protein levels) of AKR1C3 [2]: negligible or absence of effects | decrease in AKR1C3 activity (Dau to Dau-ol) ([3]; 1 µM BTK inhibitor + 1 µM Dau): 29.40% ± 11.55% | decrease in AKR1C3 activity (Dau to Dau-ol) ([3]; 5 µM BTK inhibitor + 1 µM Dau): 45.16% ± 0.86% | decrease in AKR1C3 activity (Dau to Dau-ol) ([3]; 10 µM BTK inhibitor + 1 µM Dau): 60.72% ± 6% | Fraction affected (Fa %) (HCT116-EV cells; [4]): 58.13 ± 12.2% | Fraction affected (Fa %) (HCT116-EV cells; [5]): 77.56 ± 6.90% | Fraction affected (Fa %) (HCT116-EV cells; BTK-inhibitor 10 µM + Dau 0.25 µM): 58.56 ± 7.79% | Fraction affected (Fa %) (HCT116-EV cells; BTK-inhibitor 10 µM + Dau 0.50 µM): 81.92 ± 4.25% | IC50 (HCT116-EV cells; Homo sapiens, 72 h MTT, read-out: IC50 of BTK inhibitor alone (cell viability)): 17 µM
